Consider four molecules from patent US8975232B2, “Macrocyclic kinase inhibitors and uses thereof” (President and Fellows of Harvard College, priority 2010, dated 2015).

Where two headings read alike, the source gives them in different places.

Assay [1] deals with T1, Src kinase (Homo sapiens, UniProt P12931). Kind of assay: In vitro selection of DNA-templated macrocycle library against GST-fused target. The conditions noted are these: one round of selection; DNA-linked library member. It counts as binding. The text has this:
Multiple representatives were chosen from each protein class so that we could compare selection results within protein families. In total, we performed a single round of in vitro selection against 36 protein targets. Additionally, we also performed a selection for binding to GST (with no fused target protein) immobilized on glutathione-linked resin. Although successive rounds of selection (with or without DNA amplification and translation between rounds) can multiply net enrichment factors,^29 we hypothesized that recent advances in ultra high-throughput DNA sequencing would enable even modest enrichment factors to be robustly detected, and the findings in this work are the result of a single round of selection on each protein target.
Following in vitro selection, DNA templates linked to target-binding macrocycles were amplified in PCR reactions using primers containing “barcode” sequences specific to each selection (FIG. 3). We also amplified DNA templates from eight aliquots of the unselected library to determine the initial abundance of each library member. A set of 12 five-base barcodes used in pairwise combinations provided sufficient encoding complexity for one round of selection against 36 protein targets, a control selection against immobilized GST, and eight pre-selection library samples (Table 3). These barcodes were designed to differ by at least three bases from one another so that common DNA sequencing errors would not preclude barcode assignment. After affinity selection and PCR amplification, barcoded samples were combined in equimolar amounts and submitted for ultra high-throughput DNA sequencing^46,47 as a single sample.
To rapidly identify the DNA-linked macrocycles that survived target affinity selection, we used Solexa (Illumina) DNA sequencing technology.^48 Because standard Solexa sequencing read lengths at the time of this experiment were shorter than the length of our barcoded library templates (84 base pairs), the paired-end sequencing method, which provides both forward and reverse sequencing reads for each template, was used. We created a PERL computer program to analyze the large amount of data emerging from high-throughput sequencing. First, forward and reverse sequence reads were merged to give complete template sequences (FIG. 4a). Each complete DNA sequence was converted into a combination of a barcode (selection identity) and three codons (building block identities). Template sequences were then binned by barcode to deconvolute the results of each selection. The abundance fraction of each library member was determined within each selection by counting the number of corresponding DNA sequence occurrences and dividing by the total number of interpretable sequence reads for that selection. Finally, enrichment factors for each library member were computed by dividing post-selection abundance fraction by pre-selection abundance fraction. In total, we received 25.6 million paired forward and reverse sequence reads from two Solexa sequencing runs. Of these, all four codons (which require five out of six correct bases per codon for the building blocks, and three out of three correct bases per codon for the scaffold^24) and the selection barcode (which requires four out of five correct bases) could be conclusively assigned for 12.4 million sequences. As a result, we obtained ˜200,000 sequence reads for each selection, and 1.7 million sequence reads of the pre-selection library.
In vitro selections of the 13,824-membered library were conducted exactly as described above for the positive control selections. For each selection, 5 pmol of library were used. PCR amplification of selection survivors was performed with 5′-barcoded forward and reverse primers. Barcoded PCR amplicons were quantitated using Picogreen dsDNA quantitation reagent (Invitrogen), mixed in equimolar amounts, and submitted for high-throughput DNA sequencing.

The target in assay [2] is T1, Src kinase. Kind of assay: Z'-LYTE kinase assay (Invitrogen), Src. In kind it is biochemical. On the set-up: full-length kinase in the Z-LYTE assay vs. kinase domain in the current study; purchased Millipore. As to the method: Nine macrocycles enriched in the Src selection (FIG. 5) and synthesized as described above were assayed in vitro for the ability to inhibit Src kinase activity. Kinase activity was assayed in the presence of varying concentrations of macrocycle using the FRET-based Z′-LYTE assay (Invitrogen).
(§1) Src IC50 determinations and single-point inhibition measurements were performed using Invitrogen's Z′-LYTE Tyr 02 assay kit according to the manufacturer's protocols. All kinase assays were performed at ATP concentrations near KM,ATP values, except where noted otherwise. Active human Src kinase was obtained from Millipore. For kinome profiling and IC50 determinations against non-Src kinases, compounds were submitted to Invitrogen's SelectScreen Kinase Profiling Service.

Assay [3] concerns the target ABL1 (Homo sapiens, UniProt P00519). Kind of assay: SelectScreen kinase profiling. It counts as biochemical. As to the method: as §1
In assay [4] the target is T2, AURKA (Aurora A) (Homo sapiens, UniProt O14965).
T2 sequence (O14965 1-403): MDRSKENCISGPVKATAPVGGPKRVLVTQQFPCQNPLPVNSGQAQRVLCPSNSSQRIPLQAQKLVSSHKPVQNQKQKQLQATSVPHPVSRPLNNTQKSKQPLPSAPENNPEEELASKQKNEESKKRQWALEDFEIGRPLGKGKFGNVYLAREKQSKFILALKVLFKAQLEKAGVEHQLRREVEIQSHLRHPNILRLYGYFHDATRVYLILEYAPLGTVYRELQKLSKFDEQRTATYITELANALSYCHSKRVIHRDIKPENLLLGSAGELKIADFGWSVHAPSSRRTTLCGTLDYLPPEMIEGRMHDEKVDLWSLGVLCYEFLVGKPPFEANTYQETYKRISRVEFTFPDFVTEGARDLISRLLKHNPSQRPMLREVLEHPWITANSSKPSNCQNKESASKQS
Kind of assay: SelectScreen kinase profiling. It counts as biochemical. The method, then:
as §1

Assay [5] deals with T3, Src kinase domain (Gallus gallus, UniProt P00523).
T3 construct: chicken c-Src (residues 251-533 and residues 83-533); made in house
Kind of assay: Fluorescence anisotropy binding assay. Also on record: species or system chicken. Conditions: fluorescein-labeled macrocycle, read-out: dissociation constant (KD). The method, then: The change in fluorescence anisotropy of fluorescein-labeled MC1, MC4 and MC9 at 518 nm upon excitation at 492 nm was monitored with a HORIBA Jobin Yvon FluoroMax-4 (Edison, N.J.) spectrofluorimeter. Kinase was titrated to 0.5 μM of the fluorescently labeled macrocycle in 100 mM Tris pH 8.0, 10 mM MgCl2 at 25° C. After equilibration, the increase in the fluorescence anisotropy of the fluorescently labeled ligand was recorded and fitted against a quadratic binding equation in Kaleidagraph (Synergy Software, Reading Pa.) to yield the dissociation constant KD.
To clarify the inhibitory mechanism of the compounds further, the binding affinity of fluorescently labeled MC1, MC4, and MC9 to Src kinase domain was determined in a fluorescence anisotropy assay (FIG. 21).

Assay [6] addresses RET (Homo sapiens, UniProt P07949). Kind of assay: SelectScreen kinase profiling. In kind it is biochemical. The conditions noted are these: 10-point titration. The method, then: as §1
Assay [7] deals with FGR (Homo sapiens, UniProt P09769). Kind of assay: SelectScreen kinase profiling. It counts as biochemical. The conditions noted are these: Fgr; 10-point titration. As to the method: as §1
For assay [8], the target named is T4, HCK (Homo sapiens, UniProt P08631). Kind of assay: SelectScreen kinase profiling. In kind it is biochemical. The method, then:
as §1
Target sequence in this assay (P08631 whole entry): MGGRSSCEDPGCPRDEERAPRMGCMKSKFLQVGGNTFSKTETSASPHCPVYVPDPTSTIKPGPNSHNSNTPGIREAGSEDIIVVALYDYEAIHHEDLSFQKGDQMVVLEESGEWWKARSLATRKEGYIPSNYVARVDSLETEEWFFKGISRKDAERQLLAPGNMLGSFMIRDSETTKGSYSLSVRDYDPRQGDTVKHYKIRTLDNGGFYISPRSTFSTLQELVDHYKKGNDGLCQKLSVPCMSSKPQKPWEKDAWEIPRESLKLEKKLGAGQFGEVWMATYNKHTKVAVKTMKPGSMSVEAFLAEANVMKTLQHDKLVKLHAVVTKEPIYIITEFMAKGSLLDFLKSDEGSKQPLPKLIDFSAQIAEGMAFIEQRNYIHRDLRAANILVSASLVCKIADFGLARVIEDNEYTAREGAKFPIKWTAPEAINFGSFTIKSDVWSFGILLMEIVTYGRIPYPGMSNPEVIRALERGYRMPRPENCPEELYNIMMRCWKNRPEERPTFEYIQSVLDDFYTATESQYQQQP

Assay [9] addresses FYN (Homo sapiens, UniProt P06241). Kind of assay: SelectScreen kinase profiling. It counts as biochemical. As to the method:
as §1

The target in assay [10] is AURKB (Aurora B) (Homo sapiens, UniProt Q96GD4). Kind of assay: SelectScreen kinase profiling. In kind it is biochemical. As to the method: as §1
Chain of AURKB (Aurora B) (Q96GD4 whole entry): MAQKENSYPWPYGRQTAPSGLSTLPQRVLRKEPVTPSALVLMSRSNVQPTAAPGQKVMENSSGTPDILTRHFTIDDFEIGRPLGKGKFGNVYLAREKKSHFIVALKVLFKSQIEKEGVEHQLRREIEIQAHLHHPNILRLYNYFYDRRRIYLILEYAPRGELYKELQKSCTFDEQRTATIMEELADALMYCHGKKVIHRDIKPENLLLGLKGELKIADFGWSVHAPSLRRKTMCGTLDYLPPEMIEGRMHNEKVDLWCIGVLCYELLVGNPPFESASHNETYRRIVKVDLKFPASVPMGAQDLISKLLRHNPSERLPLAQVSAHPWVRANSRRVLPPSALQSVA
Assay [11] deals with T5, Lck (Mus musculus, UniProt P06240).
T5 construct: murine Lck (residues 227-509); made in house
T5 sequence (P06240 227-509): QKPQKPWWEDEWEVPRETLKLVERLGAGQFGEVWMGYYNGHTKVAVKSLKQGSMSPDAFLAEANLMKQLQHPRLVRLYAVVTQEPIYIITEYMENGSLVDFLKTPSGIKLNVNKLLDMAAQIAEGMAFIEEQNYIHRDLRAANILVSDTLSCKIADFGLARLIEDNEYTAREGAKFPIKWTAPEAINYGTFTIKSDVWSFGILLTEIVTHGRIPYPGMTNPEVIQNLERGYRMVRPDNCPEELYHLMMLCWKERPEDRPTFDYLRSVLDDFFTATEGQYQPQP
Kind of assay: Continuous spectrophotometric kinase activity assay. In kind it is biochemical, murine. The text has this:
(§2) Kinase domain constructs of human c-Abl (residues 229-512), chicken c-Src (residues 251-533 and residues 83-533), murine Lck (residues 227-509), and human Hck (residues 166-445) were expressed as previously described (Seeliger, Young et al. 2005; Seeliger, Nagar et al. 2007; the entire contents of each of which are incorporated by reference herein). Mutations were introduced into chicken c-Src (residues 251-533) (T338I, C277Q, L297M) by site-directed mutagenesis and verified by DNA sequencing.
(§3) In vitro kinase inhibition assays were performed using either a continuous spectrophotometric assay or a FRET-based endpoint assay.
(§4) The original characterization of kinase inhibition was performed with a commercial kinase assay that relies on a fluorescently labeled peptide kinase substrate (Z-LYTE, Invitrogen). For further characterization, a continuous spectrophotometric kinase activity assay was employed that is easily adapted to different substrate peptides as well as a wider range of peptide and ATP concentrations.

In assay [12] the target is T6, Abl (Homo sapiens, UniProt P00519).
T6 construct: human c-Abl (residues 229-512); made in house
T6 sequence (P00519 229-512): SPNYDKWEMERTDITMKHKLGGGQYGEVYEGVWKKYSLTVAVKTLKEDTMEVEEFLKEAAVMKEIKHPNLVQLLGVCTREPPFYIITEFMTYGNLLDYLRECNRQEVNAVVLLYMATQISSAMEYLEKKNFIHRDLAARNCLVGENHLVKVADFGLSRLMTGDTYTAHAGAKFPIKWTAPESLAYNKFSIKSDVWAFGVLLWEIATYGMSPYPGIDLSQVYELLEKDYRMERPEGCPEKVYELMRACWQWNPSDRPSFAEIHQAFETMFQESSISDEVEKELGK
The description is as above. In kind it is biochemical.
From the text: as §2, §3, §4

Assay [13] addresses T7, Src kinase domain (chicken c-Src residues 251-533) (Gallus gallus, UniProt P00523).
T7 construct: chicken c-Src (residues 251-533 and residues 83-533); made in house
Described as above. It counts as biochemical. The conditions noted are these: for IC50: Src kinase domain.
From the text: as §2, §3, §4

Assay [14] has as its target T4, HCK. The description is as above. On the set-up: Kinase domain constructs of human c-Abl (residues 229-512), chicken c-Src (residues 251-533 and residues 83-533), murine Lck (residues 227-509), and human Hck (residues 166-445); made in house. In kind it is biochemical.
From the text: as §2, §3, §4
Target sequence in this assay (P08631 262-515 limits assumed): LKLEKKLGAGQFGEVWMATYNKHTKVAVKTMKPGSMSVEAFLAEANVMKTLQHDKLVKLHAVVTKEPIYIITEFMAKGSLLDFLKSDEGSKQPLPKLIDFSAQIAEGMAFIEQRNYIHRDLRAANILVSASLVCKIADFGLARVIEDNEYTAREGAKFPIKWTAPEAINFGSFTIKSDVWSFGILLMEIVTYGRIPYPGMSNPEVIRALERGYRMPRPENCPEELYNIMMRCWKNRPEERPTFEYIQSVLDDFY

Assay [15] relates to panel of 58 commercially available human protein kinases. Kind of assay: Kinase selectivity panel, Invitrogen SelectScreen. In kind it is biochemical. As to the method:
Macrocycle cis-A11-B1-C5-D7 was assayed at 50 μM against a representative panel of 58 commercially available human protein kinases including all nine mammalian Src family kinases (Table 8).
as §1

Assay [16] concerns protein kinases. Conditions: judged by similar criteria; cited from earlier work.
Assay [17] concerns the target BcLxL (1-209, Δ45-84, N-terminal GST-fused) (UniProt Q07817). Kind of assay: single round of affinity selection of the DNA-linked peptide on GST-Bcl-xL on glutathione beads; restriction digestion.
The mark [18] stands for this setting: 5 μM ATP, 100 μM Src optimal peptide.
[19] abbreviates: 5 μM ATP, 300 μM Src optimal peptide.
[20] abbreviates: 250 μM ATP, 300 μM Src optimal peptide.

T1 sequence (P12931 whole entry, the tested form may be a part): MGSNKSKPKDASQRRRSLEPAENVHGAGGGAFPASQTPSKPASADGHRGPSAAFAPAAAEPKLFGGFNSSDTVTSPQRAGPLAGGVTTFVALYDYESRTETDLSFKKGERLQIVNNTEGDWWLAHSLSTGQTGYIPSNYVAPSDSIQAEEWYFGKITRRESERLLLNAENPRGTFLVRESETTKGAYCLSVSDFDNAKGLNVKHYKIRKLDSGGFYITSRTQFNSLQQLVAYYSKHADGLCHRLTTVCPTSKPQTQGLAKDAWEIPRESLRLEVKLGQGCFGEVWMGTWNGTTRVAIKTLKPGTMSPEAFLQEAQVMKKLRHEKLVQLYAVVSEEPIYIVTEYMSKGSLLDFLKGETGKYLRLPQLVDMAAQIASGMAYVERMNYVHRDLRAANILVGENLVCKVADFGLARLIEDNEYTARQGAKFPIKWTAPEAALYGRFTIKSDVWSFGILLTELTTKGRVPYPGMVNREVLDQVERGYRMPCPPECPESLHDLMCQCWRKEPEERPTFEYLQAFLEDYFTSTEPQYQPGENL
Chain of ABL1 (P00519 whole entry): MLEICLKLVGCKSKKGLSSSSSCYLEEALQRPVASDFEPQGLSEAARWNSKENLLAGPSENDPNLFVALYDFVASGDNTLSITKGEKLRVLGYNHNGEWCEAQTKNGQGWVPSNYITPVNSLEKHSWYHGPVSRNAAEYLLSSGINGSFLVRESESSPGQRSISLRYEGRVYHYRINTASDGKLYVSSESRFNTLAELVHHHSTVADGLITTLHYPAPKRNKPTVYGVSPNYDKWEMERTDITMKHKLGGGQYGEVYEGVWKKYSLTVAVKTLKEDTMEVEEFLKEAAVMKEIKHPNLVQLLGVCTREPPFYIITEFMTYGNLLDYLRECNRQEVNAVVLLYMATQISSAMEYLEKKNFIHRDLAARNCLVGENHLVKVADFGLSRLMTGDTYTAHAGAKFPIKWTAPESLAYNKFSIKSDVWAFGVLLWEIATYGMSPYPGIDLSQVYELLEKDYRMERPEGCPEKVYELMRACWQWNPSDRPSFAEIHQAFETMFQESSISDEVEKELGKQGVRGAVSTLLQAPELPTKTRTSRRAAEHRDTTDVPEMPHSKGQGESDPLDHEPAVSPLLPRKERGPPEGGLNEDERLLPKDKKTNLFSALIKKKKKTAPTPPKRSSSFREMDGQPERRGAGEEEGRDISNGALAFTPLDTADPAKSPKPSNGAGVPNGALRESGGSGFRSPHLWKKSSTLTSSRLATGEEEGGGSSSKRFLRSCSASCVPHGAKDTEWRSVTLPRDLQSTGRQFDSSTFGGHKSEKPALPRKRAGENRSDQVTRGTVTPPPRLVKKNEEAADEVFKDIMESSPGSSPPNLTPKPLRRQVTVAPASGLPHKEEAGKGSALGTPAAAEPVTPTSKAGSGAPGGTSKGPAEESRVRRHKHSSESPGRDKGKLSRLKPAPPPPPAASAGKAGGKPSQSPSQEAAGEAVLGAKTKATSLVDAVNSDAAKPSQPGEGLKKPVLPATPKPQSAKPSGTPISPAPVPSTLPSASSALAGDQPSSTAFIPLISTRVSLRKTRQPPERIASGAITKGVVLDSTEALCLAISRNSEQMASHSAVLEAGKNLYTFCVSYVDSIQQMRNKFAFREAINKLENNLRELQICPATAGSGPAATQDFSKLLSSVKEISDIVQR
Chain of BcLxL (1-209, Δ45-84, N-terminal GST-fused) (Q07817 other isoform, or with tags, fused parts or gaps mutant): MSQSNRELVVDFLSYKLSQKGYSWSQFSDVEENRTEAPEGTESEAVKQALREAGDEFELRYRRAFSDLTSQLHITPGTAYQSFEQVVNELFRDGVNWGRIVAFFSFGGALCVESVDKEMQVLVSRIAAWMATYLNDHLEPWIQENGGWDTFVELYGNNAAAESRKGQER
Chain of FYN (P06241 whole entry): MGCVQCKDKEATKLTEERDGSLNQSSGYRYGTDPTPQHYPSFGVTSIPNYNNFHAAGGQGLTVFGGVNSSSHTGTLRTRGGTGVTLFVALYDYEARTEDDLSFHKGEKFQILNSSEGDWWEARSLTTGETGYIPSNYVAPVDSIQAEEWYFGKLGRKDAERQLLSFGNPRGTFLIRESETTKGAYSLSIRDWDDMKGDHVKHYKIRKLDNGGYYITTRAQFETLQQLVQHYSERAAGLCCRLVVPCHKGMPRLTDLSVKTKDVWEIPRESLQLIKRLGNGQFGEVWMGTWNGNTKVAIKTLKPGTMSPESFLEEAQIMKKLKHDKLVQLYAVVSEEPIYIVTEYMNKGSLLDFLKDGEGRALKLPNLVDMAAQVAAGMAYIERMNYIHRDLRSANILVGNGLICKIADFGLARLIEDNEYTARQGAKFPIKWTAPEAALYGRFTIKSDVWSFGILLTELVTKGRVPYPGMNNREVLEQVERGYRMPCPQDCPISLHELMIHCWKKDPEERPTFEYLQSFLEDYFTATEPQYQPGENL
Chain of RET (P07949 29-1114): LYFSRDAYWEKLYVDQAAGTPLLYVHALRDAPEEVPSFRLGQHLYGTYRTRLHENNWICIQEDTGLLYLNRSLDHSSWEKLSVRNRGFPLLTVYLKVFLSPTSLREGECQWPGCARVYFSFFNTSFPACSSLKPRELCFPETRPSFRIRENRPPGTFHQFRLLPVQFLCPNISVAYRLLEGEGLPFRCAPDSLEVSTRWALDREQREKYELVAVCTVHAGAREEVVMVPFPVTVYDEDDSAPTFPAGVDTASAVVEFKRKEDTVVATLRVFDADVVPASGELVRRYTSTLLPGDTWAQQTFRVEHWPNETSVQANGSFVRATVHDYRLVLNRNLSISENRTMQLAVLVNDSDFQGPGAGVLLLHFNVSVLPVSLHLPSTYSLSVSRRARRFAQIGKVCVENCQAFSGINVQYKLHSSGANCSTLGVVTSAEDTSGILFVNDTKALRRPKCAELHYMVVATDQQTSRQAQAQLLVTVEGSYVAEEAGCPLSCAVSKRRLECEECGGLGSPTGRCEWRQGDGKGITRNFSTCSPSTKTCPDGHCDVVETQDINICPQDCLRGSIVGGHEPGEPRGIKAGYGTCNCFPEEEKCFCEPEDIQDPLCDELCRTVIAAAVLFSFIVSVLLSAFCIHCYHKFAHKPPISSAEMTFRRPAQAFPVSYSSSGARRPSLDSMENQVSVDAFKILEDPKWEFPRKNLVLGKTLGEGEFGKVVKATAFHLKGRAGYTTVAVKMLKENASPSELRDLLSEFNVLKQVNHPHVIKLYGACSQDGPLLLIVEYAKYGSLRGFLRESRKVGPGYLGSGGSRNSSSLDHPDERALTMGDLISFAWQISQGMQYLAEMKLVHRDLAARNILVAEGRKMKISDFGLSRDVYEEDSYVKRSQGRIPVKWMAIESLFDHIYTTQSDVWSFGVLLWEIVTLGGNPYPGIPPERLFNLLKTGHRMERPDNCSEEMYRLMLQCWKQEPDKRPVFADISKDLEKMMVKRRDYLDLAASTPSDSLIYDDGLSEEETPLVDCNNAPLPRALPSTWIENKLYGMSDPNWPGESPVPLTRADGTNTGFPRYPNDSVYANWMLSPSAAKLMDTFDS

On to `NC(=O)[C@@H]1CCNC(=O)[C@H](CCCNC(=O)c2cnccn2)NC(=O)[C@H](Cc2ccco2)NC(=O)[C@H](CC2CC2)NC(=O)C=CC(=O)N1` [Macrocycle A11-B1-C5-D7], for which, in [1], the “enrichment factor after selection against Src kinase” value was determined as 62 fold. Also, in [2], the “difference in potency between cis and trans stereoisomers (Src)” value is recorded as around 10 fold. Moreover, the “selectivity for Src over Abl kinase” value in [3] is above 50 fold. The “selectivity for Aurora A among the Aurora family” value in assay [4] is above 100 fold.
The term Kd denotes the equilibrium constant for the complex coming apart. The IC50 is the concentration needed to halve the response being measured. A high value points to weaker potency in that assay. Consider `NC(=O)[C@@H]1CCNC(=O)[C@H](CCCNC(=O)c2cnccn2)NC(=O)[C@H](Cc2ccco2)NC(=O)[C@H](CC2CC2)NC(=O)/C=C\C(=O)N1` [cis-A11-B1-C5-D7], for which the Kd in assay [5] (250 μM AMP-PNP) worked out at 3.3 µM; in assay [5] (no competitor), 2.1 µM. In addition, the IC50 in assay [2] (Z'-LYTE, ATP near KM) is 0.96 µM; in [6], 5.7 µM; in assay [7], 4 µM; in assay [4] (Aurora A, 10-point titration), 1.7 µM; in assay [11] (setting [18]), above 100 µM; in assay [11] (setting [19]), above 100 µM. Also, the half-inhibitory concentration (IC50) in assay [11] (setting [20]) is above 100 µM; in [12] (setting [18]) it was above 100 µM; in [12] (setting [19]), above 100 µM; in assay [12] (setting [20]), above 100 µM; in [13] (setting [18]) it was 16 µM; in assay [13] (setting [19]), 26 µM. Also, the half-maximal inhibitory concentration (IC50) in assay [13] (setting [20]) was 89 µM; in assay [14] (setting [18]), above 100 µM; in assay [14] (setting [19]), above 100 µM; in assay [14] (setting [20]), above 100 µM. In addition, the “mode of Src inhibition” value in assay [2] (apparent KM for ATP versus macrocycle concentration) is reported as “ATP-competitive”. The “selectivity for Src over Hck” value in assay [8] was above 50 fold. In assay [3], the “selectivity for Src over Abl kinase” value is above 50 fold. In assay [9], the “selectivity for Src over Fyn” value is above 50 fold. Moreover, the “selectivity for Aurora A over Aurora B” value in assay [10] is on record as above 50 fold. Also, in assay [13] (Src optimal substrate peptide 100 to 300 μM), the “increase in IC50 upon increasing substrate peptide 3-fold to 300 μM” value amounted to 50%. For the same molecule, the “selectivity for Src over all remaining Src-family kinases with the exception of Fgr” value in assay [15] was above 10 fold. In assay [15] (fraction of non-target kinases with IC50 within 10-fold of Src IC50 (960 nM)), this molecule had a selectivity score of 0.05.
`CN[C@@H]1C[C@H]2O[C@@](C)([C@@H]1OC)n1c3ccccc3c3c4c(c5c6ccccc6n2c5c31)C(=O)NC4` [staurosporine]: the selectivity score in assay [16] is 0.50.
In the case of Bak peptide (DNA-linked), the Enrichment Factor in assay [17] was determined as 200.
